Patent US20240254143A1, “OREXIN RECEPTOR AGONISTS AND USES THEREOF” (JAZZ PHARMACEUTICALS IRELAND LIMITED, priority 2021, published 2024)

The compounds below were run against T1, human recombinant OX2 (hOX2) receptor (Homo sapiens, UniProt O43614) (assay: IP-1 accumulation assay (IP-One HTRF) in hOX2-CHO cells). Conditions: 60 min at 37° C., mean of at least two independent experiments, read-out: EC50_OX2R Category.
T1 construct: host or cells: CHO cells
T1 sequence (O43614 1-444): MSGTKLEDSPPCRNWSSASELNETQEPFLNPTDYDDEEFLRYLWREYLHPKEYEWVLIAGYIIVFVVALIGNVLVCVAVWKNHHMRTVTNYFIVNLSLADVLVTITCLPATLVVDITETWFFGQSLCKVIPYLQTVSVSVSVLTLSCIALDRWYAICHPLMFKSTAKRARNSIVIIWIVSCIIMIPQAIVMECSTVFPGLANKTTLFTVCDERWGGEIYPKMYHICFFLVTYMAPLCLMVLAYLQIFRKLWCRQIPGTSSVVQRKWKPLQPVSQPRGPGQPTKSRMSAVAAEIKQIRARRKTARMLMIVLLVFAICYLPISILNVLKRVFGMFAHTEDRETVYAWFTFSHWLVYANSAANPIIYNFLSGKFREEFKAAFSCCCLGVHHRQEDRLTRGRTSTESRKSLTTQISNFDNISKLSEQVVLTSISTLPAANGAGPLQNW
Assay type: cell-based
Protocol: Example 94: IP-1 Accumulation Assay
The accumulation of Inositol-1 Monophosphate (IP-1) was measured using IP-One HTRF® Terbium cryptate based assay (Cisbio) in human recombinant OX1 (hOX1) and at OX2 (hOX2) receptors expressed in CHO cells (DiscoverX) according to the manufacturer's instructions for cells tested in suspension.
hOX1-CHO and hOX2-CHO cells were seeded into white 384-well plates at a density of 20,000 cells/well in Hank's Balanced Salt Solution (HBSS) containing 20 mM HEPES pH 7.4, 50 mM, LiCl and 0.1% and Bovine Serum Albumin (BSA).
Compounds of the present disclosure were tested in a 11 points concentration response curve (CRC) serially diluted in neat DMSO at 200 fold concentrations and added by Echo acoustic liquid handling (Labcyte) to the cells (0.5% DMSO final in the assay). After 60 min of incubation at 37° C. detection reagents, IP1-d2 tracer and anti-IP1-cryptate were diluted in lysis buffer according to the manufacturer's descriptions and added to the cells.
Following 60 mi incubation at room temperature, time-resolved fluorescence (HTRF) was measured at 615 nm and 665 nm by Envision Multilabel reader (Perkin Elmer) and the HTRF ratio (A665/A615×10^4) was calculated.
The IP-1 accumulation response was expressed as percentage of the maximal OX-A response.
Curve fitting and EC50 estimations were carried out using a four-parameter logistic model using XLfit Software. Mean data of EC50 are calculated from at least two independent experiments performed in duplicates.

Row | SMILES | EC50 [nM]
1 | C[C@@H]1C[C@@]2(COCC(=O)N2)[C@H](CO[C@H]2CC[C@@H](c3ccccc3)CC2)N1C(=O)NCC(F)F [Example 50, (1R,3R,5S)-N-(2,2-difluoroethyl)-3-methyl-7-oxo-1-({[(CIS)-4-phenylcyclohexyl]oxy}methyl)-9-oxa-2,6-diazaspiro[4.5]decane-2-carboxamide] | < 100
2 | C[C@@H]1C[C@@]2(COCC(=O)N2)[C@H](CO[C@H]2CC[C@@H](c3ccccc3)CC2)N1C(=O)N1CC(F)(F)C1 [Example 52, (1R,3R,5S)-2-(3,3-difluoroazetidine-1-carbonyl)-3-methyl-1-({[(CIS)-4-phenylcyclohexyl]oxy}methyl)-9-oxa-2,6-diazaspiro[4.5]decan-7-one] | 1000 to 10000
3 | CCNC(=O)N1[C@H](C)C[C@@]2(COCC(=O)N2)[C@@H]1Cc1cccc(-c2cc(F)cc(F)c2)c1F [Example 53, (1S,3R,5S)-N-ethyl-3-methyl-7-oxo-1-({2,3′,5′-trifluoro-[1,1′-biphenyl]-3-yl}methyl)-9-oxa-2,6-diazaspiro[4.5]decane-2-carboxamide] | < 100
4 | C[C@@H]1C[C@@]2(COCC(=O)N2)[C@H](Cc2cccc(-c3cc(F)cc(F)c3)c2F)N1C(=O)C(C)(C)O [Example 54, (1S,3R,5S)-2-(2-hydroxy-2-methylpropanoyl)-3-methyl-1-({2,3′,5′-trifluoro-[1,1′-biphenyl]-3-yl}methyl)-9-oxa-2,6-diazaspiro[4.5]decan-7-one] | 100 to 1000
5 | C[C@@H]1C[C@@]2(COCC(=O)N2)[C@H](CO[C@H]2CC[C@@H](c3ccccc3)CC2)N1C(=O)C1CCC1 [Example 58, (1R,3R,5S)-2-cyclobutanecarbonyl-3-methyl-1-({[(CIS)-4-phenylcyclohexyl]oxy}methyl)-9-oxa-2,6-diazaspiro [4.5]decan-7-one] | < 100
6 | C[C@@H]1C[C@@]2(COCC(=O)N2)[C@H](CO[C@H]2CC[C@@H](c3ccccc3)CC2)N1C(=O)[C@H]1C[C@@H](F)C1 [Example 59, (1R,3R,5S)-3-methyl-2-[(1s,3s)-3-fluorocyclobutanecarbonyl]-1-({[(CIS)-4-phenylcyclohexyl]oxy}methyl)-9-oxa-2,6-diazaspiro[4.5]decan-7-one] | < 100
7 | C[C@@H]1C[C@@]2(COCC(=O)N2)[C@H](CO[C@H]2CC[C@@H](c3ccccc3)CC2)N1C(=O)C12CC(C1)C2 [Example 60, (1R,3R,5S)-2-{bicyclo[1.1.1]pentane-1-carbonyl}-3-methyl-1-({[(CIS)-4-phenylcyclohexyl]oxy}methyl)-9-oxa-2,6-diazaspiro[4.5]decan-7-one] | 1000 to 10000
8 | C[C@@H]1C[C@@]2(COCC(=O)N2)[C@H](CO[C@H]2CC[C@@H](c3ccccc3)CC2)N1C(=O)NCC(F)(F)F [Example 62, (1R,3R,5S)-3-methyl-7-oxo-1-({[(CIS)-4-phenylcyclohexyl]oxy}methyl)-N-(2,2,2-trifluoroethyl)-9-oxa-2,6-diazaspiro[4.5]decane-2-carboxamide] | < 100
9 | O=C1COC[C@@]2(C[C@@H](C(F)F)N(C(=O)[C@H]3C[C@@H](F)C3)[C@H]2Cc2cccc(-c3cc(F)cc(F)c3)c2F)N1 [Example 80, (1S,3S,5S)-3-(difluoromethyl)-2-[(1s,3s)-3-fluorocyclobutanecarbonyl]-1-({2,3′,5′-trifluoro-[1,1′-biphenyl]-3-yl}methyl)-9-oxa-2,6-diazaspiro[4.5]decan-7-one] | 100 to 1000
10 | C[C@@H]1C[C@@]2(COCC(=O)N2)[C@H](Cc2cccc(-c3cc(F)cc(F)c3)c2F)N1C(=O)C1CCC1 [Example 81, (1S,3R,5S)-2-cyclobutanecarbonyl-3-methyl-1-({2,3′,5′-trifluoro-[1,1′-biphenyl]-3-yl}methyl)-9-oxa-2,6-diazaspiro[4.5]decan-7-one] | < 100
11 | C[C@@H]1C[C@@]2(COCC(=O)N2)[C@H](Cc2cccc(-c3cc(F)cc(F)c3)c2F)N1C(=O)[C@H]1C[C@@H](F)C1 [Example 82, (1S,3R,5S)-3-methyl-2-[(1s,3s)-3-fluorocyclobutanecarbonyl]-1-({2,3′,5′-trifluoro-[1,1′-biphenyl]-3-yl}methyl)-9-oxa-2,6-diazaspiro[4.5]decan-7-one] | < 100
12 | C[C@@H]1C[C@@]2(COCC(=O)N2)[C@H](Cc2cccc(-c3cc(F)cc(F)c3)c2F)N1C(=O)OCC(F)F [Example 83, 2,2-difluoroethyl (1S,3R,5S)-3-methyl-7-oxo-1-({2,3′,5′-trifluoro-[1,1′-biphenyl]-3-yl}methyl)-9-oxa-2,6-diazaspiro[4.5]decane-2-carboxylate] | 100 to 1000
13 | C[C@@H]1C[C@@]2(COCC(=O)N2)[C@H](Cc2cccc(-c3cc(F)cc(F)c3)c2F)N1C(=O)CC(F)(F)F [Example 84, (1S,3R,5S)-3-methyl-1-({2,3′,5′-trifluoro-[1,1′-biphenyl]-3-yl}methyl)-2-(3,3,3-trifluoropropanoyl)-9-oxa-2,6-diazaspiro[4.5]decan-7-one] | 100 to 1000
14 | COC(=O)N1[C@H](C)C[C@@]2(COCC(=O)N2)[C@@H]1Cc1cccc(-c2cc(F)cc(F)c2)c1F [Example 85, Methyl (1S,3R,5S)-3-methyl-7-oxo-1-({2,3′,5′-trifluoro-[1,1′-biphenyl]-3-yl}methyl)-9-oxa-2,6-diazaspiro[4.5]decane-2-carboxylate] | > 10000
15 | C[C@@H]1C[C@@]2(COCC(=O)N2)[C@H](Cc2cccc(-c3cc(F)cc(F)c3)c2F)N1C(=O)C1CC(F)(F)C1 [Example 86, (1S,3R,5S)-2-(3,3-difluorocyclobutanecarbonyl)-3-methyl-1-({2,3′,5′-trifluoro-[1,1′-biphenyl]-3-yl}methyl)-9-oxa-2,6-diazaspiro[4.5]decan-7-one] | 100 to 1000
16 | CCN(C)C(=O)N1[C@H](C)C[C@@]2(COCC(=O)N2)[C@@H]1Cc1cccc(-c2cc(F)cc(F)c2)c1F [Example 87, (1S,3R,5S)-N-ethyl-N,3-dimethyl-7-oxo-1-({2,3′,5′-trifluoro-[1,1′-biphenyl]-3-yl}methyl)-9-oxa-2,6-diazaspiro[4.5]decane-2-carboxamide] | 100 to 1000

The remaining lines, values ahead:

Row | EC50 [nM] | SMILES
17 | < 100 | CCNC(=O)N1[C@H](C)C[C@@]2(COCC(=O)N2)[C@@H]1CO[C@H]1CC[C@@H](c2ccccc2)CC1 [Example 47, (1R,3R,5S)-N-ethyl-3-methyl-7-oxo-1-({[(CIS)-4-phenylcyclohexyl]oxy}methyl)-9-oxa-2,6-diazaspiro[4.5] decane-2-carboxamide]
18 | > 10000 | CCNC(=O)N1[C@H](C)C[C@]2(COCC(=O)N2)[C@H]1CO[C@H]1CC[C@@H](c2ccccc2)CC1 [Example 48, (1S,3R,5R)-N-ethyl-3-methyl-7-oxo-1-({[(CIS)-4-phenylcyclohexyl]oxy}methyl)-9-oxa-2,6-diazaspiro[4.5] decane-2-carboxamide]
19 | 1000 to 10000 | C[C@@H]1C[C@@]2(COCC(=O)N2)[C@H](CO[C@H]2CC[C@@H](c3ccccc3)CC2)N1C(=O)C(C)(C)O [Example 49, (1R,3R,5S)-2-(2-hydroxy-2-methylpropanoyl)-3-methyl-1-({[(CIS)-4-phenylcyclohexyl]oxy}methyl)-9-oxa-2,6-diazaspiro[4.5]decan-7-one]
20 | < 100 | COCCNC(=O)N1[C@H](C)C[C@@]2(COCC(=O)N2)[C@@H]1CO[C@H]1CC[C@@H](c2ccccc2)CC1 [Example 51, (1R,3R,5S)-N-(2-methoxyethyl)-3-methyl-7-oxo-1-({[(CIS)-4-phenylcyclohexyl]oxy}methyl)-9-oxa-2,6-diazaspiro[4.5]decane-2-carboxamide]
21 | < 100 | C[C@@H]1C[C@@]2(COCC(=O)N2)[C@H](CO[C@H]2CC[C@@H](c3ccccc3)CC2)N1C(=O)OCC(F)F [Example 61, 2,2-difluoroethyl (1R,3R,5S)-3-methyl-7-oxo-1-({[(CIS)-4-phenylcyclohexyl]oxy}methyl)-9-oxa-2,6-diazaspiro [4.5]decane-2-carboxylate]
22 | 100 to 1000 | COc1cccnc1N1[C@H](C)C[C@@]2(COCC(=O)N2)[C@@H]1CO[C@H]1CC[C@@H](c2ccccc2)CC1 [Example 63, (1R,3R,5S)-2-(3-methoxypyridin-2-yl)-3-methyl-1-({[(CIS)-4-phenylcyclohexyl]oxy}methyl)-9-oxa-2,6-diazaspiro[4.5]decan-7-one]
23 | < 100 | C[C@@H]1C[C@@]2(COCC(=O)N2)[C@H](CO[C@H]2CC[C@@H](c3ccccc3)CC2)N1c1nnnn1C [Example 64, (1R,3R,5S)-3-methyl-2-(1-methyl-1H-1,2,3,4-tetrazol-5-yl)-1-({[(CIS)-4-phenylcyclohexyl]oxy}methyl)-9-oxa-2,6-diazaspiro[4.5]decan-7-one]
